Measured values taken from PubChem BioAssay AID1208 (EPA DSSTox, 2008).
Activity calls are given as the source filed them.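 How the source made its calls: active means at least one rat sex group has a carcinogenic potency value and tumor site recorded; inconclusive means only rat studies were judged inadequate by the national testing program; inactive means no potency or tumor site, with negative rat experiments.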

System: rat chronic carcinogenicity bioassay, TD50
Assay: DSSTox (CPDBAS) Carcinogenic Potency Database Summary Rat Bioassay Results
Details: for Potency: active compounds read low; for outcome: TD50_Rat_Note: no positive results
Outline: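 The activity score maps log10(1/TD50_Rat_mmol) linearly onto 1–100; actives without a computed TD50, such as mixtures, receive 50. Source data are chronic rat carcinogenicity tests, using the most positive experiment for each sex.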

[1] = TargetSites_Rat_Female: no positive results
[2] = TD50_Rat_Note: TD50 is harmonic mean of more than one positive test, TargetSites_Rat_Female: liver, mammary gland
[3] = TD50_Rat_Note: TD50 is harmonic mean of more than one positive test, TargetSites_Rat_Female: stomach
[4] = TargetSites_Rat_Female: mammary gland
[5] = TD50_Rat_Note: TD50 is harmonic mean of more than one positive test, TargetSites_Rat_Female: liver

Cc1cc(N=Nc2c(O)ccc3ccccc23)c(S(=O)(=O)O)cc1Cl
Potency [1]: 146 mg/kg/day

CC(C)OC(=O)Nc1cccc(Cl)c1
outcome [1]: inactive; no positive results

C=CBr
Potency (TD50_Rat_Note: TD50 is harmonic mean of more than one positive test, TargetSites_Rat_Female: ear Zymbals gland, liver, vascular system): 18.5 mg/kg/day

O=C1NCCN1/N=C/c1ccc([N+](=O)[O-])o1
Potency (TargetSites_Rat_Female: hematopoietic system, mammary gland): 5.26 mg/kg/day

C=CCN=C=S
Potency [1]: 96 mg/kg/day

COCCl
Potency: 5.5 mg/kg/day

COc1cc2c(c3oc(=O)c4c(c13)CC[C@H]4O)[C@@H]1C=CO[C@H]1O2
Potency: 0.00247 mg/kg/day

CCOCCc1c(-c2ccccc2)nc(N)n2ncnc12
Potency [2]: 548 mg/kg/day

CN1C(C(=O)Nc2ccccn2)=C(O)c2sc(Cl)cc2S1(=O)=O
outcome [1]: inactive; no positive results

Cn1cc[nH]c1=S
Potency (TD50_Rat_Note: TD50 is harmonic mean of more than one positive test, TargetSites_Rat_Female: thyroid gland): 1.14 mg/kg/day

c1ccc2ccccc2c1
Potency (TD50_Rat_Note: TD50 is harmonic mean of more than one positive test, TargetSites_Rat_Female: nasal cavity): 22.1 mg/kg/day

Clc1cccc(-c2cccc(Cl)c2)c1
Potency (TD50_Rat_Note: no positive results are statistically significant, TD50_Rat_mmol was not calculated for this mixture, but Activiity Scor): 157 mg/kg/day

COc1cc(-c2ccc(N=Nc3c(S(=O)(=O)O)cc4cc(S(=O)(=O)O)cc(N)c4c3O)c(OC)c2)ccc1N=Nc1c(S(=O)(=O)O)cc2cc(S(=O)(=O)O)cc(N)c2c1O
Potency (TD50_Rat_Note: TD50 is harmonic mean of more than one positive test, TargetSites_Rat_Female: clitoral gland, ear Zymbals gland, hematopoietic system, large intestine, liver, oral cavity, skin, small intestine, ute): 27.5 mg/kg/day

C[C@@H]1CCCCN1N=O
Potency (TargetSites_Rat_BothSexes: nervous system): 20.4 mg/kg/day

O=C(O)/C=C/c1ccc(O)c(O)c1
Potency [3]: 297 mg/kg/day

Clc1ccc(-c2ccc(Cl)c(Cl)c2Cl)c(Cl)c1Cl
Potency (TD50_Rat_Note: TD50 is harmonic mean of more than one positive test, TD50_Rat_mmol was not calculated for this mixture, but Activiity S, TargetSites_Rat_Female: liver): 2.81 mg/kg/day

CC(Cl)CCl (stereo not given)
outcome [1]: inactive; no positive results

CCCCCN(N=O)C(=O)OCC
Potency (TargetSites_Rat_Female: esophagus, oral cavity): 1.01 mg/kg/day

NC(=O)N(CCCO)N=O
Potency [3]: 0.978 mg/kg/day

O=S(=O)(O)c1ccc(N=Nc2c(O)ccc3cc(S(=O)(=O)O)ccc23)cc1
outcome [1]: inactive; no positive results

[K+]
Potency (TD50_Rat_Note: TD50 is harmonic mean of more than one positive test, TargetSites_Rat_Female: oral cavity): 440 mg/kg/day

O=C1CCCCC1
outcome [1]: inactive; no positive results

Cc1csc(NNC=O)n1
Potency [4]: 14.4 mg/kg/day

CC(C)=NO
Potency [1]: 12.1 mg/kg/day

C[C@@H]1C/C=C/C=C/C=C/C=C/[C@H](O[C@@H]2O[C@H](C)[C@@H](O)[C@H](N)[C@@H]2O)C[C@@H]2O[C@](O)(C[C@@H](O)C[C@H]3O[C@@H]3/C=C/C(=O)O1)C[C@H](O)[C@H]2C(=O)O
outcome [1]: inactive; no positive results

CC(C)(C)c1cc(C(C)(C)C)c(O)c(C(C)(C)C)c1
outcome [1]: inactive; no positive results

CN[C@H]1CC[C@@H](c2ccc(Cl)c(Cl)c2)c2ccccc21
outcome [1]: inactive

CCOC(=O)N(CC)N=O
Potency (TD50_Rat_Note: TD50 is harmonic mean of more than one positive test, TargetSites_Rat_Female: esophagus, oral cavity, small intestine, stomach): 0.0904 mg/kg/day

[N-]=[N+]=CC(=O)OC[C@H](N)C(=O)O
Potency (TD50_Rat_Note: positive test results only by intraperitoneal or intravenous injection, TargetSites_Rat_BothSexes: pancreas): 0.793 mg/kg/day

Cc1ccc([N+](=O)[O-])cc1N
outcome [1]: inactive; no positive results

CCCC[N+](=O)[O-]
outcome: inactive; no positive results

COc1ccc(C(Cl)=C(c2ccc(OC)cc2)c2ccc(OC)cc2)cc1
outcome [1]: inactive; no positive results

CC(=O)Nc1ccc(C(=O)CCl)cc1
outcome [1]: inactive; no positive results

OCC(CO)(CBr)CBr
Potency (TD50_Rat_Note: TD50 is harmonic mean of more than one positive test, TargetSites_Rat_Female: esophagus, mammary gland, oral cavity, thyroid gland): 111 mg/kg/day

CCN(Cc1cccc(S(=O)(=O)O)c1)c1ccc(C(=C2C=CC(=[N+](CC)Cc3cccc(S(=O)(=O)O)c3)C=C2)c2ccc(O)cc2S(=O)(=O)[O-])cc1
outcome [1]: inactive; no positive results

CCCCCCCCCCCCN(C)N=O
Potency (TD50_Rat_Note: TD50 is harmonic mean of more than one positive test, harmonic mean of TD50 includes a value for upper 99% confidence li, TargetSites_Rat_Female: urinary bladder): 0.537 mg/kg/day

CN(C)CCOC(C)(c1ccccc1)c1ccccn1 (stereo not given)
Potency [1]: 1610 mg/kg/day

O=C(Nc1nc(-c2ccc([N+](=O)[O-])o2)cs1)C(F)(F)F
Potency [4]: 6.79 mg/kg/day

C=CC(=O)NCO
outcome [1]: inactive; no positive results

Cc1cc(C)c(N=Nc2c(O)c(S(=O)(=O)O)cc3cc(S(=O)(=O)O)ccc23)cc1C
Potency (TD50_Rat_Note: TD50 is harmonic mean of more than one positive test, greater than ten-fold variation among TD50 values for positive res, TargetSites_Rat_Female: liver): 521 mg/kg/day

Nc1ncn[nH]1
Potency (TD50_Rat_Note: TD50 is harmonic mean of more than one positive test, TargetSites_Rat_Female: pituitary gland, thyroid gland): 9.94 mg/kg/day

Nc1cc(S(=O)(=O)[O-])cc2cc(S(=O)(=O)[O-])c(N=Nc3ccc(-c4ccc(N=Nc5c(S(=O)(=O)[O-])cc6cc(S(=O)(=O)[O-])cc(N)c6c5O)c(O)c4)cc3O)c(O)c12.[Cu].[Cu].[Na+].[Na+].[Na+].[Na+]
Potency [1]: 1570 mg/kg/day

Oc1ccccc1-c1ccccc1
Potency (TD50_Rat_Note: TD50 is harmonic mean of more than one positive test, greater than ten-fold variation among TD50 values for positive res, TargetSites_Rat_Female: urinary bladder): 672 mg/kg/day
Potency: 232 mg/kg/day

CN(C)CCN(Cc1ccco1)c1ccccn1
outcome [1]: inactive; no positive results

CN(C)C(=S)[S][Pb][S]C(=S)N(C)C
outcome [1]: inactive; no positive results

CCOc1ccc2c(c1)C(C)=CC(C)(C)N2
outcome [1]: inactive; no positive results

ClC(Cl)Cl
Potency [5]: 262 mg/kg/day

N[C@@H](Cc1ccc(N(CCCl)CCCl)cc1)C(=O)O
Potency (TD50_Rat_Note: positive test results only by intraperitoneal or intravenous injection, TD50 is harmonic mean of more than one positive, TargetSites_Rat_Female: peritoneal cavity): 0.0938 mg/kg/day

Nc1ccc(Cl)cc1N
Potency (TD50_Rat_Note: TD50 is harmonic mean of more than one positive test, TargetSites_Rat_Female: stomach, urinary bladder): 214 mg/kg/day

Nc1cc(Cl)cc(C(=O)O)c1Cl
outcome [1]: inactive; no positive results

CC1CN(N=O)CC(C)N1C (stereo not given)
Potency (TargetSites_Rat_Female: nasal cavity): 0.151 mg/kg/day

CN(C)Nc1nc(-c2ccc([N+](=O)[O-])o2)cs1
Potency (TD50_Rat_Note: harmonic mean of TD50 includes a value for upper 99% confidence limit from study with 100% tumor incidence but no lifeta, TargetSites_Rat_Female: hematopoietic system, mammary gland): 0.41 mg/kg/day

O.O.O.O.O.O.O.O=S(=O)([O-])[O-].[Co+2]
Potency (TD50_Rat_Note: TD50 is harmonic mean of more than one positive test, TargetSites_Rat_Female: adrenal gland, lung): 0.137 mg/kg/day

CCC1CO1 (stereo not given)
Potency [1]: 220 mg/kg/day

CC/C(=C(\c1ccccc1)c1ccc(OCCN(C)C)cc1)c1ccccc1
Potency (TD50_Rat_Note: TD50 is harmonic mean of more than one positive test, harmonic mean of TD50 includes a value for upper 99% confidence li, TargetSites_Rat_Female: liver): 3.96 mg/kg/day

O=C([O-])c1cc(N=Nc2ccc(-c3ccc(N=Nc4c(O)ccc(N=Nc5cc(S(=O)(=O)[O-])ccc5[O-])c4[O-])cc3)cc2)ccc1O.[Cu+2].[Na+].[Na+]
Potency (TargetSites_Rat_Female: liver): 2.07 mg/kg/day

c1ccc2n[nH]nc2c1
outcome [1]: inactive; no positive results

COc1ccc(C(=O)/C(Br)=C\C(=O)O)cc1
Potency (TD50_Rat_Note: positive test results only by intraperitoneal or intravenous injection, TD50 is harmonic mean of more than one positive, TargetSites_Rat_Female: mammary gland): 2.77 mg/kg/day

CCCN(CCC)c1c([N+](=O)[O-])cc(C(F)(F)F)cc1[N+](=O)[O-]
outcome [1]: inactive; no positive results

Cn1c(=O)c2[nH]cnc2n(C)c1=O
outcome [1]: inactive; no positive results

CCOP(=O)=O.CCOP(=O)=O.CCOP(=O)=O.[Al+3]
Potency [1]: 3660 mg/kg/day

Nc1c(Cl)c(Cl)nc(C(=O)O)c1Cl
outcome [1]: inactive; no positive results

C1CNCCN1
outcome [1]: inactive; no positive results

CC[C@H](C)[C@H]1O[C@]2(CC[C@@H]1C)C[C@@H]1C[C@@H](C/C=C(\C)[C@@H](O[C@H]3C[C@H](OC)[C@@H](O[C@H]4C[C@H](OC)[C@@H](O)[C@H](C)O4)[C@H](C)O3)[C@@H](C)/C=C/C=C3\CO[C@@H]4[C@H](O)C(C)=C[C@@H](C(=O)O1)[C@]34O)O2
outcome: inactive; no positive results

O=NN(CCO)CC(O)CO (stereo not given)
Potency (TargetSites_Rat_Female: liver): 5.98 mg/kg/day

c1ccc2c(c1)[nH]c1cnccc12
outcome: inactive; no positive results

CCN=[N+](C)[O-]
Potency: 11.5 mg/kg/day

c1ccoc1
Potency (TD50_Rat_Note: TD50 is harmonic mean of more than one positive test, TargetSites_Rat_Female: hematopoietic system, liver): 0.396 mg/kg/day

CCN(N=O)C(N)=O
Potency (TD50_Rat_Note: TD50 is harmonic mean of more than one positive test, TargetSites_Rat_Female: nervous system, small intestine): 0.948 mg/kg/day

CCOC(=O)C(C)(C)Oc1ccc(Cl)cc1
Potency: 169 mg/kg/day

CC(C)Oc1ccccc1OC(=O)N(C)N=O
Potency: 0.364 mg/kg/day

CCCC[C@H](C)[C@@H](OC(=O)C[C@H](CC(=O)O)C(=O)O)[C@@H](C[C@H](C)C[C@@H](O)CCCC[C@@H](O)C[C@H](O)[C@H](C)N)OC(=O)C[C@H](CC(=O)O)C(=O)O
Potency (TD50_Rat_Note: TD50 is harmonic mean of more than one positive test, TargetSites_Rat_Female: no positive results): 1.5 mg/kg/day

ClCC(Br)CBr (stereo not given)
Potency (TD50_Rat_Note: TD50 is harmonic mean of more than one positive test, TargetSites_Rat_Female: adrenal gland, mammary gland, nasal cavity, oral cavity, stomach): 0.259 mg/kg/day

CN1CCCC1=O
outcome [1]: inactive; no positive results

COc1cc(OC)c2c3c(c(=O)oc2c1)CCC3=O
outcome: inactive; no positive results

Nc1cccc2c(N)cccc12
Potency (TargetSites_Rat_Female: clitoral gland, uterus): 69.6 mg/kg/day

Cc1ncc([N+](=O)[O-])n1CCO
Potency [2]: 542 mg/kg/day

Cc1cc(N=Nc2ccccc2C)ccc1N
Potency [5]: 4.04 mg/kg/day

O=C(O)CNCC(=O)O
outcome [1]: inactive; no positive results
